Data on 29 compounds can be found in patent US12252459B2, “Hydrazone amide derivatives and use thereof in preparation of anti-osteoporosis drugs” (SHENZHEN CELL INSPIRE PHARMACEUTICAL DEVELOPMENT CO., LTD., priority 2019, dated 2025).

Series [1] is described as follows: Cytotoxicity assay (MTT) on RAW264.7 cells. In kind it is cell-based. The following applies: mouse, RAW264.7 cell growth inhibition, MTT method. As for the experimental part:
Example 32: Cytotoxicity Assay of Compounds
(§1) RAW264.7 cells were cultured in vitro using DMEM high glucose medium containing 10% fetal bovine serum at 37° C. under 5% CO2 for routine maintenance culture and passage.
(§2) S2. Compound Intervention
The logarithmic growth phase cells were collected and formulated into a cell suspension at a concentration of 1×10^5 cells/mL, and the cell suspension was added to a 96-well cell culture plate. After culturing in a carbon dioxide incubator for 24 hours, the culture medium was replaced with a medium containing the compound at different concentrations to continue culturing for 2 days, and the cytotoxicity was detected on day 3. The compound to be tested was prepared into solutions of different concentrations using DMSO. Three wells were set for each concentration, and a control group without the compound treatment was set for comparison. […]
(§3) S4. Processing of Results
The RAW264.7 cell growth inhibition rate by each compound was calculated according to the following equation: […]
A cell growth inhibition curve of each compound was plotted with the RAW264.7 cell growth inhibition rate as the ordinate and the logarithm of the compound concentration as the abscissa. According to the inhibition rate of each compound on the cells, the 50% cytotoxic concentration CC50 was calculated, i.e., the concentration of the compound that is required for 50% inhibition of cell growth.
(§4) In addition, a selective inhibition constant of each compound was calculated according to the equation: selective inhibition constant (SI)=CC50/IC50, in order to evaluate the administration safety of each compound.

The subject of series [2] is RANKL-induced osteoclast differentiation of RAW264.7 cells. Description: Osteoclast differentiation inhibition experiment (RANKL-induced, TRAP staining). In kind it is cell-based. The following applies: for IC50: RAW264.7 cells, 100 ng/ml RANKL, 5 days, TRAP staining, osteoclasts with 3 or more nuclei counted; for Therapeutic index SI (CC50/IC50): selective inhibition constant = CC50 (RAW264.7 cytotoxicity) / IC50 (osteoclast differentiation). As for the experimental part:
Example 33: Osteoclast Differentiation Inhibition Experiment
as §1, §2
The logarithmic growth phase cells were collected and formulated into a cell suspension at a concentration of 2×10^4 cells/mL, and the cell suspension were added to a 96-well cell culture plate. After culturing in a carbon dioxide incubator for 24 hours, the culture medium was replaced with a medium containing 100 ng/ml RANKL and the compound at different concentrations to continue culturing for 5 days, while changing the medium containing the same RANKL concentration and compound concentration every 2 days. The osteoclasts were stained with the TRAP staining method and measured on day 5. Three wells were set for each concentration, and a control group without the compound treatment was set for comparison.
The differentiated osteoclasts were stained with TRAP kit, and the number of osteoclasts fused by 3 or more nuclei was counted.
as §3
The inhibition rate of each compound on RANKL-induced osteoclast differentiation was calculated according to the following equation: […]
An osteoclast differentiation inhibition curve of each compound was plotted with the osteoclast differentiation inhibition rate as the ordinate and the logarithm of the compound concentration as the abscissa. According to the osteoclast differentiation inhibition rate by each compound, the half maximal inhibitory concentration IC50 was calculated, i.e., the concentration of the compound that is required for 50% osteoclast differentiation inhibition.
as §4
Based on the value of the selective index SI=CC50/IC50, the anti-osteoporotic differentiation effect of the compound was evaluated according to the following criteria.

`CCOC(=O)c1sc(NC(=O)/C(=N/Nc2ccccc2C(=O)O)C(C)=O)nc1C` [Compound 1]: the 50% cytotoxic concentration (CC50) at 2 days in series [1] amounted to 62.5 µM. The compound further registered an IC50 in series [2] (Mus musculus, RAW264.7, 120 h) of 1.24 µM. Besides, in series [2], the “Therapeutic index SI (CC50/IC50)” value was 50.
The compound `CCOC(=O)c1sc(NC(=O)/C(=N/Nc2ccc(C(=O)O)cc2)C(C)=O)nc1C` [Compound 2] had a half-maximal cytotoxic concentration (CC50) at 2 days in series [1] of 69.2 µM. The compound also gave an IC50 in series [2] (Mus musculus, RAW264.7, 120 h) of 0.73 µM. Further, the “Therapeutic index SI (CC50/IC50)” value in series [2] turned out to be 95.
For the compound `CCOC(=O)c1sc(NC(=O)/C(=N/Nc2cccc(C(=O)O)c2)C(C)=O)nc1C` [Compound 3], the midpoint of cytotoxicity in series [1], the CC50 at 2 days, lay at 81.2 µM. In addition, in series [2], the IC50 is 0.05 µM and the “Therapeutic index SI (CC50/IC50)” value is 1625.
The compound `CCOC(=O)c1sc(NC(=O)/C(=N/Nc2ccccc2C(=O)OC)C(C)=O)nc1C` [Compound 4] had a cytotoxic concentration (CC50) at 2 days in series [1] of 82.1 µM. Half-maximal inhibition in series [2] (Mus musculus, RAW264.7, 120 h) (IC50) required 1.26 µM. Moreover, the “Therapeutic index SI (CC50/IC50)” value in series [2] is given as 65.
In series [1], `CCOC(=O)c1sc(NC(=O)/C(=N/Nc2ccccc2O)C(C)=O)nc1C` [Compound 5] registered a CC50 at 2 days of 52.6 µM. In series [2] (Mus musculus, RAW264.7, 120 h), the half-maximal inhibitory concentration (IC50) came to 2.45 µM. In series [2], the “Therapeutic index SI (CC50/IC50)” value is 21.
In turn, `CCOC(=O)c1sc(NC(=O)/C(=N/Nc2ccccc2CO)C(C)=O)nc1C` [Compound 6] returned a CC50 at 2 days in series [1] of 77.9 µM. The IC50 in series [2] (Mus musculus, RAW264.7, 120 h) is 12.1 µM. In series [2], the “Therapeutic index SI (CC50/IC50)” value stood at 6.
The compound `CCOC(=O)c1sc(NC(=O)/C(=N/Nc2c(C)cccc2C(=O)O)C(C)=O)nc1C` [Compound 7] showed a CC50 at 2 days in series [1] of 62.8 µM. For the same compound, in series [2] (Mus musculus, RAW264.7, 120 h), the IC50 is 0.99 µM. Also, the “Therapeutic index SI (CC50/IC50)” value in series [2] is on record as 63.
Take `CCOC(=O)c1sc(NC(=O)/C(=N/Nc2cc(C)ccc2C(=O)O)C(C)=O)nc1C` [Compound 8]: in series [1], the CC50 at 2 days was determined as 57.2 µM. For the same compound, the IC50 in series [2] (Mus musculus, RAW264.7, 120 h) amounted to 3.85 µM. Further, the “Therapeutic index SI (CC50/IC50)” value in series [2] worked out at 15.
In series [1], `CCOC(=O)c1sc(NC(=O)/C(=N/Nc2ccc(C)cc2C(=O)O)C(C)=O)nc1C` [Compound 9] yielded a CC50 at 2 days of 89 µM. The same compound gave an IC50 in series [2] (Mus musculus, RAW264.7, 120 h) of 4.63 µM. In addition, the “Therapeutic index SI (CC50/IC50)” value in series [2] was 19.
On the same counts, the results for `CCOC(=O)c1sc(NC(=O)/C(=N/Nc2ccc(F)cc2C(=O)O)C(C)=O)nc1C` [Compound 10] are 123 µM, 0.4 µM and 308.
Compound `CCOC(=O)c1sc(NC(=O)/C(=N/Nc2cc(F)ccc2C(=O)O)C(C)=O)nc1C` [Compound 11] came in with a half-maximal cytotoxic concentration (CC50) at 2 days in series [1] of 57.2 µM. Besides, in series [2] (Mus musculus, RAW264.7, 120 h), the IC50 was determined as 1.02 µM. Further, in series [2], the “Therapeutic index SI (CC50/IC50)” value was found to be 56.
In the case of `CCOC(=O)c1sc(NC(=O)/C(=N/Nc2c(C#N)cccc2C(=O)O)C(C)=O)nc1C` [Compound 12], the CC50 at 2 days in series [1] amounted to 391 µM. Moreover, in series [2], the IC50 was 0.23 µM and the “Therapeutic index SI (CC50/IC50)” value came to 1701.
Compound `CCOC(=O)c1sc(NC(=O)/C(=N/Nc2cc(C#N)ccc2C(=O)O)C(C)=O)nc1C` [Compound 13] came in with a half-maximal cytotoxic concentration (CC50) at 2 days in series [1] of 62.3 µM. The compound further displayed an IC50 in series [2] (Mus musculus, RAW264.7, 120 h) of 0.88 µM. Besides, in series [2], the “Therapeutic index SI (CC50/IC50)” value was 71.
In series [1], `CCOC(=O)c1sc(NC(=O)/C(=N/Nc2ccc([N+](=O)[O-])cc2C(=O)O)C(C)=O)nc1C` [Compound 14] showed a CC50 at 2 days of 41.9 µM. It took 0.89 µM to reach half-maximal inhibition in series [2] (Mus musculus, RAW264.7, 120 h) (IC50). The “Therapeutic index SI (CC50/IC50)” value in series [2] was 47.
`CCOC(=O)c1sc(NC(=O)/C(=N/Nc2ccc(Cl)cc2C(=O)O)C(C)=O)nc1C` [Compound 15] displayed a CC50 at 2 days in series [1] of 33.9 µM. This compound also showed a 50% inhibitory concentration (IC50) in series [2] (Mus musculus, RAW264.7, 120 h) of 1.56 µM. Besides, the “Therapeutic index SI (CC50/IC50)” value in series [2] is listed as 22.
On the same counts, the results for `CCOC(=O)c1sc(NC(=O)/C(=N/Nc2ccncc2C(=O)O)C(C)=O)nc1C` [Compound 16] are 451 µM, 22.3 µM and 20.
On the same counts, the results for `CCOC(=O)c1sc(NC(=O)/C(=N/Nc2c(C(=O)O)cccc2C(=O)O)C(C)=O)nc1C` [Compound 18] are 125 µM, 0.46 µM and 271.
Take `CCOC(=O)c1sc(NC(=O)/C(=N/Nc2cc(C(=O)O)ccc2C(=O)O)C(C)=O)nc1C` [Compound 19]: the cytotoxic concentration (CC50) at 2 days in series [1] stood at 202 µM. Also, the IC50 in series [2] (Mus musculus, RAW264.7, 120 h) came to 10.2 µM. Moreover, the “Therapeutic index SI (CC50/IC50)” value in series [2] is 20.
On the same counts, the results for `CCOC(=O)c1sc(NC(=O)/C(=N/Nc2ccc(N)cc2C(=O)O)C(C)=O)nc1C` [Compound 20] are 49.1 µM, 1.23 µM and 40.
As for `CC(=O)/C(=N\Nc1ccccc1C(=O)O)C(=O)Nc1nc(C)cs1` [Compound 21], in series [1], half-maximal cytotoxicity (CC50 at 2 days) was put at 220 µM. This compound came in with an IC50 in series [2] (Mus musculus, RAW264.7, 120 h) of 2.58 µM. Besides, in series [2], the “Therapeutic index SI (CC50/IC50)” value came out at 85.
With `CC(=O)/C(=N\Nc1ccccc1C(=O)O)C(=O)Nc1nccs1` [Compound 22], the CC50 at 2 days in series [1] was found to be 149 µM. The compound also yielded an IC50 in series [2] (Mus musculus, RAW264.7, 120 h) of 3.66 µM. Also, the “Therapeutic index SI (CC50/IC50)” value in series [2] was 41.
Consider `CC(=O)/C(=N\Nc1ccccc1C(=O)O)C(=O)Nc1nc2ccccc2s1` [Compound 23], for which, in series [1], the midpoint of cytotoxicity, the CC50 at 2 days, lay at 41.1 µM. The IC50 in series [2] (Mus musculus, RAW264.7, 120 h) stood at 0.78 µM. Further, the “Therapeutic index SI (CC50/IC50)” value in series [2] was 53.
In series [1], `CC(=O)/C(=N\Nc1ccccc1C(=O)O)C(=O)Nc1ccccc1` [Compound 24] displayed a CC50 at 2 days of 75.2 µM. In series [2] (Mus musculus, RAW264.7, 120 h), this compound returned an IC50 of 11.1 µM. Besides, in series [2], the “Therapeutic index SI (CC50/IC50)” value was determined as 7.
Regarding `CC(=O)/C(=N\Nc1ccccc1C(=O)O)C(=O)Nc1ccccn1` [Compound 25], the CC50 at 2 days in series [1] was determined as 81.2 µM. For the same compound, it took 0.36 µM to reach half-maximal inhibition in series [2] (Mus musculus, RAW264.7, 120 h) (IC50). In series [2], it took 0.27 µM to reach half-maximal inhibition (IC50) and the “Therapeutic index SI (CC50/IC50)” value amounted to 301.
In series [1], `CC(=O)/C(=N\Nc1ccccc1C(=O)O)C(=O)NC1CCNCC1` [Compound 26] registered a CC50 at 2 days of 65.8 µM. For the same compound, in series [2] (Mus musculus, RAW264.7, 120 h), the half-inhibitory concentration (IC50) was found to be 8.85 µM. In addition, the “Therapeutic index SI (CC50/IC50)” value in series [2] amounted to 7.
In turn, `CC(=O)/C(=N\Nc1ccccc1C(=O)O)C(=O)N1CCc2ccccc2C1` [Compound 27] registered a CC50 at 2 days in series [1] of 135 µM. The same compound registered an IC50 in series [2] (Mus musculus, RAW264.7, 120 h) of 9.03 µM. The “Therapeutic index SI (CC50/IC50)” value in series [2] worked out at 15.
With `CC(=O)/C(=N\Nc1ccccc1C(=O)O)C(=O)N1CCOCC1` [Compound 28], it took 76.2 µM to reach half-maximal cytotoxicity in series [1] (CC50 at 2 days). The compound also had an IC50 in series [2] (Mus musculus, RAW264.7, 120 h) of 0.99 µM. Also, the “Therapeutic index SI (CC50/IC50)” value in series [2] is listed as 77.
`CC(=O)/C(=N\Nc1ccccc1C(=O)O)C(=O)Nc1ccc(C#N)cn1` [Compound 29] gave a CC50 at 2 days in series [1] of 119 µM. In addition, the IC50 in series [2] (Mus musculus, RAW264.7, 120 h) was 3.21 µM. For the same compound, in series [2], the “Therapeutic index SI (CC50/IC50)” value came out at 37.
Take `CC(=O)/C(=N\Nc1ccccc1C(=O)O)C(=O)Nc1cccc(O)n1` [Compound 30]: the CC50 at 2 days in series [1] is 198 µM. The IC50 in series [2] (Mus musculus, RAW264.7, 120 h) was 15.4 µM. In series [2], the “Therapeutic index SI (CC50/IC50)” value is 13.

One may read the CC50 as the concentration that lowers cell viability or growth by half. A high value points to lower toxicity to the cells. Broadly, the IC50 is the concentration that gives 50% inhibition. A high value points to weaker potency.
